Experimental data published in ChEMBL document CHEMBL4800726, “Data for DCP probe MSC-4381” (2021).
Values belong to the molecule of their own block, whether it stands above or below them.

Assays:
[1] = biological target: T1, 5-hydroxytryptamine receptor 1A (Homo sapiens) (UniProt P08908); settings: Compound concentration 10.0 uM
T1 sequence (whole entry): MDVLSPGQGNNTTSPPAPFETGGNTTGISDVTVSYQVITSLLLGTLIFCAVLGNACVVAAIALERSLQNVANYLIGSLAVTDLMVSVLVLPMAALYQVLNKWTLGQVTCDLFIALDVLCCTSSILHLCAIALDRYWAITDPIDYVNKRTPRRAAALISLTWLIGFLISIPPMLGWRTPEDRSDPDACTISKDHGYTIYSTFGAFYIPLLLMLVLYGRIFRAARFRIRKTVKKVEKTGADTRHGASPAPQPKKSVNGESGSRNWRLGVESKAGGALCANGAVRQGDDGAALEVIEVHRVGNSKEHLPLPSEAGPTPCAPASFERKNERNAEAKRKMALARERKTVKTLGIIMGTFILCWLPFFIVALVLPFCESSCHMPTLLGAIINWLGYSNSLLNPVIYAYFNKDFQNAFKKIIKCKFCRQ

[2] = biological target: D(2) dopamine receptor (Homo sapiens) (UniProt P14416); settings: Compound concentration 10.0 uM
[3] = biological target: Histamine H1 receptor (Homo sapiens) (UniProt P35367); settings: Compound concentration 10.0 uM
[4] = biological target: 5-hydroxytryptamine receptor 2C (Homo sapiens) (UniProt P28335); settings: Compound concentration 10.0 uM
[5] = biological target: 5-hydroxytryptamine receptor 1D (Homo sapiens) (UniProt P28221); settings: Compound concentration 10.0 uM
[6] = biological target: Alpha-2A adrenergic receptor (Homo sapiens) (UniProt P08913); settings: Compound concentration 10.0 uM
[7] = biological target: 5-hydroxytryptamine receptor 6 (Homo sapiens, UniProt P50406); test: GPCRScan assay: inhibition of 5-HT6; design: radioligand conc. used [nm] 2.0 – 4.0, parental cells stable HEK
[8] = biological target: T2, 5-hydroxytryptamine receptor 5A (Homo sapiens, UniProt P47898); settings: Compound concentration 10.0 uM
[9] = biological target: T3, Muscarinic acetylcholine receptor M1 (Homo sapiens) (UniProt P11229); settings: Compound concentration 10.0 uM
T3 sequence (whole entry): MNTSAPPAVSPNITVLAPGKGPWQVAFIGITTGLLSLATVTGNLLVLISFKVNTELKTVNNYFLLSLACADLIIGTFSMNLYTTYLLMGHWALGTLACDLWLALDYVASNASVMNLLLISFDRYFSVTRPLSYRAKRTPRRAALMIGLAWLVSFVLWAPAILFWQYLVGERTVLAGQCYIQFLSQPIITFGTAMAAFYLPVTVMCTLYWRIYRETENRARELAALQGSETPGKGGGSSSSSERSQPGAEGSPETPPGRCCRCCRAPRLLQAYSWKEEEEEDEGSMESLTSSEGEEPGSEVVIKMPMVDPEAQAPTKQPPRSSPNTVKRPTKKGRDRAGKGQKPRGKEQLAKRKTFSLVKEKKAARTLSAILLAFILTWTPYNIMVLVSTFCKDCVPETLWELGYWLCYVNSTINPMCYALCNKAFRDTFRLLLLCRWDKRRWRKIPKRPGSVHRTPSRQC

[10] = biological target: Monocarboxylate transporter 1/4 (Homo sapiens, UniProt P53985+O15427); test: Lactate efflux inhibition assay (MiaPaCa2 ); format: protein assay
[11] = biological target: Muscarinic acetylcholine receptor M3 (Homo sapiens) (UniProt P20309); settings: Compound concentration 10.0 uM
[12] = biological target: Histamine H1 receptor (Homo sapiens) (UniProt P35367); test: H1 (h) Eurofins-Cerep binding assay; design: ligand concentration 1 nM; settings: filed as antagonist, Compound concentration 10.0 uM
[13] = biological target: D(2) dopamine receptor (Homo sapiens) (UniProt P14416); test: D2S (h) Eurofins-Cerep binding assay; design: ligand concentration 0.3 nM; settings: filed as antagonist, Compound concentration 10.0 uM
[14] = biological target: T2, 5-hydroxytryptamine receptor 5A; test: GPCRScan assay: inhibition of 5-HT5A; design: radioligand conc. used [nm] 2.0 - 3.3, parental cells Flp-In CHO
[15] = biological target: Delta-type opioid receptor (Homo sapiens, UniProt P41143); test: delta (DOP) (h) Eurofins-Cerep binding assay; design: ligand concentration 0.5 nM; settings: filed as agonist, Compound concentration 10.0 uM
[16] = biological target: D(1B) dopamine receptor (Homo sapiens) (UniProt P21918); settings: Compound concentration 10.0 uM
[17] = biological target: Histamine H2 receptor (Homo sapiens) (UniProt P25021); settings: Compound concentration 10.0 uM
[18] = biological target: D(1A) dopamine receptor (Homo sapiens) (UniProt P21728); test: D1 (h) Eurofins-Cerep binding assay; design: ligand concentration 0.3 nM; settings: filed as antagonist, Compound concentration 10.0 uM
[19] = biological target: Kappa-type opioid receptor (Homo sapiens) (UniProt P41145); test: kappa (h) (KOP) Eurofins-Cerep binding assay; design: ligand concentration 0.5 nM; settings: filed as agonist, Compound concentration 10.0 uM
[20] = biological target: Histamine H2 receptor (Homo sapiens) (UniProt P25021); test: H2 (h) Eurofins-Cerep binding assay; design: ligand concentration 0.075 nM; settings: filed as antagonist, Compound concentration 10.0 uM
[21] = biological target: T4, 5-hydroxytryptamine receptor 3A (Homo sapiens) (UniProt P46098); test: 5-HT3 (h) Eurofins-Cerep binding assay; design: ligand concentration 0.5 nM; settings: filed as antagonist, Compound concentration 10.0 uM
T4 sequence (whole entry): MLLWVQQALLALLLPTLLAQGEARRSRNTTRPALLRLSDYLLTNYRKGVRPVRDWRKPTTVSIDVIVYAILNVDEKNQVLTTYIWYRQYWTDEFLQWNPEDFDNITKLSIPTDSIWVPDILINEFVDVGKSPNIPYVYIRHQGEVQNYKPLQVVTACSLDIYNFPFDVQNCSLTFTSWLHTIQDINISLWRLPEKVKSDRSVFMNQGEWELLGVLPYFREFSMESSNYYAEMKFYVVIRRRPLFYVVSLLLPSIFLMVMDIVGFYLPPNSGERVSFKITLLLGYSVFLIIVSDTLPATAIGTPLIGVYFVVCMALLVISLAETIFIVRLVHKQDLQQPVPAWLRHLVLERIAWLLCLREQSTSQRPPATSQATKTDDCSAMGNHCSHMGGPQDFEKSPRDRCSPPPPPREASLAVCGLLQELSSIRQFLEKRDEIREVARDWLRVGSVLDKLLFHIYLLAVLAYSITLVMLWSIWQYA

[22] = biological target: Somatostatin receptor (Mus musculus) (UniProt P30935+O08858+P30875+P30873+P49660); test: sst (non-selective) Eurofins-Cerep binding assay; format: protein assay; design: ligand concentration 0.05 nM; settings: filed as agonist, Compound concentration 10.0 uM
[23] = biological target: Adrenergic receptor alpha-1 (Rattus norvegicus) (UniProt P15823+P23944+P43140); test: Alpha1 (non-selective) Eurofins-Cerep binding assay; format: protein assay; design: ligand concentration 0.25 nM; settings: filed as antagonist, Compound concentration 10.0 uM
[24] = biological target: L-type Ca2+ channel (verapamil site, phenylalkylamine) (Rattus norvegicus, UniProt P22002+P27732+Q02485); test: Ca2+ channel (L, verapamil site) (phenylalkylamine) Eurofins-Cerep binding assay; format: protein assay; design: incubation time 120 min, incubation temperature RT, ligand concentration 3 nM; settings: rat cerebral cortex, probe [3H]D888, compound concentration 10 uM, read-out: % Inhibition of Control Specific Binding (Mean n=2)
[25] = biological target: Vasoactive intestinal polypeptide receptor 1 (Homo sapiens) (UniProt P32241); test: VPAC1 (VIP1) (h) Eurofins-Cerep binding assay; design: ligand concentration 0.04 nM; settings: filed as agonist, Compound concentration 10.0 uM
[26] = biological target: T3, Muscarinic acetylcholine receptor M1 (Homo sapiens); test: M1 (h) Eurofins-Cerep binding assay; design: ligand concentration 2 nM; settings: filed as antagonist, Compound concentration 10.0 uM

Chain of Histamine H1 receptor (Homo sapiens) (P35367 whole entry): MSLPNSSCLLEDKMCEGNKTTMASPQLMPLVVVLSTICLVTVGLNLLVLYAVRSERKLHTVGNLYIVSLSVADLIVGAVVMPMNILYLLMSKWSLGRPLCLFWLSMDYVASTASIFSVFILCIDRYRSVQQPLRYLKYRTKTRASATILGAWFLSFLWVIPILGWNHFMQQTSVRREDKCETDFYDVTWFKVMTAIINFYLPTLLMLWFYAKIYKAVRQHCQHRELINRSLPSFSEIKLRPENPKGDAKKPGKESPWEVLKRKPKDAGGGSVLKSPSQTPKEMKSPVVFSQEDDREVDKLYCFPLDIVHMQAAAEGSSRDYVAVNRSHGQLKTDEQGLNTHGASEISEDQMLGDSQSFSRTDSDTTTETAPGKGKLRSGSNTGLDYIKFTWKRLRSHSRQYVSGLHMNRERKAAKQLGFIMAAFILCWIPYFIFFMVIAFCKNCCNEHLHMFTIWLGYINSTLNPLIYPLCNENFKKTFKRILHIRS
Chain of D(2) dopamine receptor (Homo sapiens) (P14416 whole entry): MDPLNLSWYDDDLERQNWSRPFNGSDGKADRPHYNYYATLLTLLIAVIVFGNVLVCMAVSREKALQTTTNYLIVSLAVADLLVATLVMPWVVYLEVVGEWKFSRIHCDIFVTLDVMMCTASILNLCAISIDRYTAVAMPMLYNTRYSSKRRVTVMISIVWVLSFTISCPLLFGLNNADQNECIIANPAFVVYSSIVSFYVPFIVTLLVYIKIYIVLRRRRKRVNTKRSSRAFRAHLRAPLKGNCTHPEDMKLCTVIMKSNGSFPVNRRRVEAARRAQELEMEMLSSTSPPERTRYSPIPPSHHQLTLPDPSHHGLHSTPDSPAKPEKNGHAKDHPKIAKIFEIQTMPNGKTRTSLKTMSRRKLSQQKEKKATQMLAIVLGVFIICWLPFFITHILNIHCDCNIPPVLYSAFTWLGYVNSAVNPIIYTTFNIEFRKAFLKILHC
Chain of Histamine H2 receptor (Homo sapiens) (P25021 whole entry): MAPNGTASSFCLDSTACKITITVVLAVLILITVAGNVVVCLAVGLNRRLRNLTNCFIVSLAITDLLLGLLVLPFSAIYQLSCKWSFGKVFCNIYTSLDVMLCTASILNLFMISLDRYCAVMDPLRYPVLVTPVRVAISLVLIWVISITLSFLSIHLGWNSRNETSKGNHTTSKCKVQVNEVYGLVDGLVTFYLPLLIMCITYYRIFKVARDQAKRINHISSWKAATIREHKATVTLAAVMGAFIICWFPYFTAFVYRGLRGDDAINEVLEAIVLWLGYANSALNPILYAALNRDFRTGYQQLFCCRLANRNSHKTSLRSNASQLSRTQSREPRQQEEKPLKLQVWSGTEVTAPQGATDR
T2 sequence (P47898 whole entry): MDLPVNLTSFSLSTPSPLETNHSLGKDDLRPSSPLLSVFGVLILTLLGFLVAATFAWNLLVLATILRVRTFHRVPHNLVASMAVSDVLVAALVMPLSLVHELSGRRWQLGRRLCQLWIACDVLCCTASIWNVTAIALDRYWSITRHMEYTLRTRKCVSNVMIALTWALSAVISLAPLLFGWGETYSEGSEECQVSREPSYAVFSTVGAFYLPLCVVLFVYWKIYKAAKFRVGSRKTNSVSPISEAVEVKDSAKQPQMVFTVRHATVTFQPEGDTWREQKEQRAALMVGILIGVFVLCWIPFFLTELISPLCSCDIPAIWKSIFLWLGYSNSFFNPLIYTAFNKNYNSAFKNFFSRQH
Chain of Alpha-2A adrenergic receptor (Homo sapiens) (P08913 whole entry): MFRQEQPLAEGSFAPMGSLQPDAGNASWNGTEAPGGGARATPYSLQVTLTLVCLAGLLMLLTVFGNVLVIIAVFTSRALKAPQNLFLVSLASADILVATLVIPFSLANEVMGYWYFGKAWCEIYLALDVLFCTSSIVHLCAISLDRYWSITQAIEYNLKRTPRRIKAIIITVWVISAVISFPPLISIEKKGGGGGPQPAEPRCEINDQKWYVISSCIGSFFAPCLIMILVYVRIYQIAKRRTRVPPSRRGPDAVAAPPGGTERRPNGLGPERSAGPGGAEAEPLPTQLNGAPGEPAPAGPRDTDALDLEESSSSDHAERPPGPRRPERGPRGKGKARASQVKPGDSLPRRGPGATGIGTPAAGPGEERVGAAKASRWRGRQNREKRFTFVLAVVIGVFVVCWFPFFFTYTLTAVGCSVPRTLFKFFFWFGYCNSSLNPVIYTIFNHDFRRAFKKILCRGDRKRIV
Chain of 5-hydroxytryptamine receptor 2C (Homo sapiens) (P28335 whole entry): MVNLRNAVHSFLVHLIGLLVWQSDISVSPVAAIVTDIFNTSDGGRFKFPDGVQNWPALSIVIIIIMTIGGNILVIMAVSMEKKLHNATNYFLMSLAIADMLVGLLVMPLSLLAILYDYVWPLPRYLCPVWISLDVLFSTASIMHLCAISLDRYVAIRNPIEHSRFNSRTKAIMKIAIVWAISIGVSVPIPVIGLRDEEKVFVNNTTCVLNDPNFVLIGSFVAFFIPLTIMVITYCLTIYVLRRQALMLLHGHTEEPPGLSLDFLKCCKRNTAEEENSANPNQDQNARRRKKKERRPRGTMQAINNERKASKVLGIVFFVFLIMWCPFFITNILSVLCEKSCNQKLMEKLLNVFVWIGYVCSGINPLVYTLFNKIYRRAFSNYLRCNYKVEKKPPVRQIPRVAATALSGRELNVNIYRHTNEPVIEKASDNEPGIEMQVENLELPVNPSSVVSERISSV
Chain of 5-hydroxytryptamine receptor 6 (P50406 whole entry): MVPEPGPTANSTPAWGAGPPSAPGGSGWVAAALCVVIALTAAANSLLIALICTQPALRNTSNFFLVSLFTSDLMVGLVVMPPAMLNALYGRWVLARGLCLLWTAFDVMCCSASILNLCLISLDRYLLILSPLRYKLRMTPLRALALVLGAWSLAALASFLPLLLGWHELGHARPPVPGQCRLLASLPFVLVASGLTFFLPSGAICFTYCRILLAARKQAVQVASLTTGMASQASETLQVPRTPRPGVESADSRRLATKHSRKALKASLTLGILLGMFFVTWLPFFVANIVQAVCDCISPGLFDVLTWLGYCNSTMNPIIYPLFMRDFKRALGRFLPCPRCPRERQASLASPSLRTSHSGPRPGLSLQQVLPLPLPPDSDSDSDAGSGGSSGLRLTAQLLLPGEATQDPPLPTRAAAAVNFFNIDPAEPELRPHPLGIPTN
Chain of D(1B) dopamine receptor (Homo sapiens) (P21918 whole entry): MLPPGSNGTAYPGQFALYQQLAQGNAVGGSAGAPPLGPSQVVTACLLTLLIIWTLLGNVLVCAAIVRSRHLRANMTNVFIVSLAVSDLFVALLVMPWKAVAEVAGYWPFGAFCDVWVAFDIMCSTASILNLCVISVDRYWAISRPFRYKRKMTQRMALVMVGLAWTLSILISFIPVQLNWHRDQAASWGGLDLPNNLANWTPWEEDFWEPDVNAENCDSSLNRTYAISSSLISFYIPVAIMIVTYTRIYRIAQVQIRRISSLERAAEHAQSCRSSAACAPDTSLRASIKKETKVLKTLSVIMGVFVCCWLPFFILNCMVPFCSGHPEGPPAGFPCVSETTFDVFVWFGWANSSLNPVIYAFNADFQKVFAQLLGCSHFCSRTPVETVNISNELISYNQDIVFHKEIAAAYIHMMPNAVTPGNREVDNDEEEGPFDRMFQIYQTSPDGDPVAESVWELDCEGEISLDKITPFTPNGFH
Chain of Kappa-type opioid receptor (Homo sapiens) (P41145 whole entry): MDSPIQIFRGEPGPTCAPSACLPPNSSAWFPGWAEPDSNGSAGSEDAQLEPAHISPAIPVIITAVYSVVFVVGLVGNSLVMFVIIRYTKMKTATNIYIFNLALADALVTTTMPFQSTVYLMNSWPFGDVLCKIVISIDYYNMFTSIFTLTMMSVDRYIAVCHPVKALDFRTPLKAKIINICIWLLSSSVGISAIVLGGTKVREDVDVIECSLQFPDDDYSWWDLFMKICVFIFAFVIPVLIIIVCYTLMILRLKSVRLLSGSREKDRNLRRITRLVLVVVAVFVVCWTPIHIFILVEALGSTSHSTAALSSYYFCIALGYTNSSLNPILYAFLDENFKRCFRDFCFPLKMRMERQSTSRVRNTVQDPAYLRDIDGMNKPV
Chain of Delta-type opioid receptor (P41143 whole entry): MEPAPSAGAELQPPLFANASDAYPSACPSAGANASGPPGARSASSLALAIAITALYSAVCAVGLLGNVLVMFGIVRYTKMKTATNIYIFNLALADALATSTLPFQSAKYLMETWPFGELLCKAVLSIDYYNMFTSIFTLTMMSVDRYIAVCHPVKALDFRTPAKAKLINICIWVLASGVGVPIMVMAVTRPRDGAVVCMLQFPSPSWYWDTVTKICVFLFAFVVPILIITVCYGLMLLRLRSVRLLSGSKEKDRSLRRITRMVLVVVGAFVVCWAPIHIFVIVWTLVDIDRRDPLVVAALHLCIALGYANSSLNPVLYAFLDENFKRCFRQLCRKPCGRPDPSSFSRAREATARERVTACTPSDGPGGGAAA
Chain of D(1A) dopamine receptor (Homo sapiens) (P21728 whole entry): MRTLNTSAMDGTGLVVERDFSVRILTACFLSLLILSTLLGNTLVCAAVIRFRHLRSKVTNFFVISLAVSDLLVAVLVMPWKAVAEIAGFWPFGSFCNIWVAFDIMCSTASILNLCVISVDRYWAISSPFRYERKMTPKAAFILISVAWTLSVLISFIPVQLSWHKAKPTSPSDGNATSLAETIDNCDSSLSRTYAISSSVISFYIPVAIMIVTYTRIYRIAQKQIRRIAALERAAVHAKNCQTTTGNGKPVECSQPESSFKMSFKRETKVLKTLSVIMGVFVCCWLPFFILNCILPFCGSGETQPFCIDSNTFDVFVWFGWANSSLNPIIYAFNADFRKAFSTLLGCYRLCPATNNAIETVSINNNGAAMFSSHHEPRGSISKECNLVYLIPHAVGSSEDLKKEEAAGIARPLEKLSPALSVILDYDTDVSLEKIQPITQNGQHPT

inhibition [1]: 40.2%
inhibition [2]: -0.32%
inhibition [3]: -1.47%
inhibition [4]: 7.95%
inhibition [5]: 11.4%
inhibition [6]: 44.4%
Ki ([7]; read-out: Ki): 1520 nM
Ki ([7]; read-out: pKi (converted)): 1450 nM
inhibition [8]: 12.2%
inhibition [9]: 25%
IC50 [10]: > 4000 nM
Compound: COc1cc(C(=O)O)ncc1C#Cc1ccccc1NS(=O)(=O)c1cccc2c(N(C)C)ccnc12 [MSC-0516]

inhibition [11]: 9.34%
% Inhibition of Control Specific Binding (Mean n=2) [12]: 27.6%
% Inhibition of Control Specific Binding (Mean n=2) [13]: 9.2%
Ki [14]: 1630 nM
inhibition [1]: 18.6%
% Inhibition of Control Specific Binding (Mean n=2) [15]: 11.7%
inhibition [2]: 9.9%
inhibition [16]: 47.7%
inhibition [17]: 24.2%
inhibition [3]: 21.7%
inhibition [4]: 24.4%
% Inhibition of Control Specific Binding (Mean n=2) [18]: 28.9%
inhibition [6]: 26%
% Inhibition of Control Specific Binding (Mean n=2) [19]: -12.1%
% Inhibition of Control Specific Binding (Mean n=2) [20]: -16.1%
% Inhibition of Control Specific Binding (Mean n=2) [21]: -8%
% Inhibition of Control Specific Binding (Mean n=2) [22]: -21.6%
% Inhibition of Control Specific Binding (Mean n=2) [23]: 6.6%
inhibition at 120 min, 10 µM [24]: -9.8%
% Inhibition of Control Specific Binding (Mean n=2) [25]: -3.2%
inhibition [9]: 16.3%
% Inhibition of Control Specific Binding (Mean n=2) [26]: 4.6%
Compound: CCOc1ccc(S(=O)(=O)Nc2ccc(Cl)cc2C#Cc2cnc(C(=O)O)cc2OC)c2ncccc12 [MSC-4381]
